Reference: patent publication US20100255127A1, “AROMATASE INHIBITOR” (KRACIE PHARMA, LTD., priority 2007, published 2010)

Molecular target: T1, aromatase (CYP19) (Homo sapiens, UniProt P11511)
T1 construct: purchased BD Biosciences Inc. (U.S.A.)
T1 sequence (P11511 1-503): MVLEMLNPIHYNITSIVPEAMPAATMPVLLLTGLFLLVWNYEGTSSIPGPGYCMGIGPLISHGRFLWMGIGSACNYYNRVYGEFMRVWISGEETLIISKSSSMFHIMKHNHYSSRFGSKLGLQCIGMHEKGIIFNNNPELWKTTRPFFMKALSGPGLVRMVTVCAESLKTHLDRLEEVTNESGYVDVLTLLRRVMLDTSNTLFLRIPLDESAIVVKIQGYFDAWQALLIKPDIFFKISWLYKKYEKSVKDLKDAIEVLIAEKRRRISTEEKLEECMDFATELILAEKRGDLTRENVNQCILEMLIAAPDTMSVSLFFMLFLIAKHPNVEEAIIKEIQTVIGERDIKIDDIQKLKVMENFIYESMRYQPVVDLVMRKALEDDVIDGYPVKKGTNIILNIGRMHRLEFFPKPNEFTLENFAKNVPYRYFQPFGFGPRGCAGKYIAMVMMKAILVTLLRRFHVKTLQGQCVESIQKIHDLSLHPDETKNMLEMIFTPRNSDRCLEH
Test: Measurement of aromatase-inhibitory activity (fluorometric HFC formation, 96-well microplate, BD Biosciences reagents)
Type: biochemical
Settings: for inhibition at 0.18 µM: concentration 0.18 μM; for inhibition at 0.18 µM / inhibition at 0.53 µM / inhibition at 1.6 µM / inhibition at 4.8 µM: average of three experiments, read-out: Inhibitory rate; for inhibition at 0.53 µM: concentration 0.53 μM; for inhibition at 1.6 µM: concentration 1.60 μM; for inhibition at 4.8 µM: concentration 4.80 μM; for IC50: text b76, components
Protocol: That is, by using a 96-well microplate, after 144 μL of a previously prepared NADPH-producing system solution (NADPH-Cofactor Mix) and 6 μL of an extract solution of test samples were mixed, and incubated at 37° C. for 10 minutes. Then, 100 μL of a solution (Enzyme Substrate Mix) containing an enzyme and a substrate was mixed with the above mixture, and reacted at 37° C. for 30 minutes. Thereafter, 75 μL of a reaction-terminating solution was added to the above, and an amount of a formed HFC (7-hydroxy-4-trifluoromethyl coumarin) which is a metabolite of the substrate was obtained by measuring a fluorescent intensity at an excitation wavelength of 409 nm and a fluorescent wavelength of 538 nm using a plate reader ([…]luor, TECAN). Incidentally, 75 μL of stop solution was added to a blank after incubation for 10 minutes, in place of adding the solution of enzyme and substrate. Aromatase inhibitory rate was calculated by the formula 1.
Aromatase inhibitory rate (%)={1−[…]}×100 [Numerical formula 1]
A=(Absorbance after enzymatic reaction without test sample−Absorbance of blank thereof) B=(Absorbance after enzymatic reaction with each test sample−Absorbance of each blank thereof)
Also, to avoid a non-specific inhibitory action (for example, protein coagulation action due to tannin), a control protein which incidents to the reagent was added to the NADPH-producing system solution.
With regard to solution of test sample, the concentration was stepwisely diluted and an inhibitory rate at each concentration was obtained, and from the results, the concentration of 50% inhibition (IC50 value) was obtained according to the interpolation method.

COc1cc(C2Oc3cc(C4Oc5cc(O)cc(O)c5C(=O)C4O)ccc3OC2CO)ccc1O (centres unmarked) [Silybin, silybin] was tested, and the “aromatase-inhibitory activity, concentration dependency in words” value was “concentration-dependent inhibitory activity”, the inhibition at 0.18 µM was 8.7 ± 9.3% and the inhibition at 0.53 µM was 12.4 ± 4.6%. For the same compound, the inhibition at 1.6 µM was 20.6 ± 1.2%, the inhibition at 4.8 µM was 59.4 ± 7.1% and the IC50 was 4.86 µM.

COc1ccc(-c2oc3c(CC=C(C)C)c(O[C@@H]4O[C@H](CO)[C@@H](O)[C@H](O)[C@H]4O)cc(O)c3c(=O)c2O[C@@H]2O[C@@H](C)[C@H](O)[C@@H](O)[C@H]2O)cc1 [Icariin, icariin] showed an inhibition at 0.18 µM of 30.4 ± 1.5%, an inhibition at 0.53 µM of 48.1 ± 6.9% and an inhibition at 1.6 µM of 63.5 ± 12.6%. It also gave an inhibition at 4.8 µM of 67.7 ± 21.3% and an IC50 of 0.754 µM.
